Assay results as given in patent publication US11000033B2, “Ketone or oxime compound, and herbicide” (NISSAN CHEMICAL CORPORATION, priority 2014, dated 2021).

Assays:
Assay type in all cases: in vivo
transplanted rice plant = experiment: Test Example 1: effect on crop, application before weed generation in submerged conditions (symbol a)
Method in brief: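 Alluvial soil pots flooded to 4 cm water, sown with Echinochloa oryzacola, Scirpus juncoides and Monochoria vaginalis, then transplanted with 2.5 leaf stage rice seedlings; pre-emergence application. Greenhouse 25° C. to 30° C.; scored 0–5 by herbicidal ratio 3 weeks after application.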

Monochoria vaginalis = experiment: Test Example 2: herbicidal activity, application during weed generation in submerged conditions (symbol C); details: Table 23, grade 0-5 by criteria of Test Example 1
Method in brief: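 Weeds emerging under flooded conditions were treated with compound formulated as an emulsion and diluted with water to the intended herbicide amount, poured onto the surface of 4 cm standing water. Seeds had been co-sown in alluvial soil; plants grew at 25° C. to 30° C. and were assessed after 3 weeks.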

[1] = test system: Echinochloa crus-galli var. crus-galli; experiment: Test Example 4: herbicidal effect by soil treatment (symbol H)
Method in brief: (§1)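 Seeds were sown in sterilized diluvial soil, covered with about 1.5 cm of soil, and the soil surface was sprayed with a water-diluted emulsion of the compound at a predetermined rate. Plants grew in a greenhouse at 25° C. to 30° C.; effects were scored visually 3 weeks after application.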

Amaranthus retroflexus = experiment: Test Example 4: herbicidal effect by soil treatment (symbol N)
Method in brief: as §1

Stellaria media [2] = experiment: Test Example 4: herbicidal effect by soil treatment (symbol P)
Method in brief: as §1

Galium spurium = experiment: Test Example 4: herbicidal effect by soil treatment (symbol Q)
Method in brief: as §1

rice = experiment: Test Example 4: effect on crop by soil treatment (symbol b)
Method in brief: (§2)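 Seeds were sown in spots on sterilized diluvial soil in a plastic box and covered with about 1.5 cm of soil. Plants were then grown in a greenhouse at 25° C. to 30° C.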

beet = experiment: Test Example 4: effect on crop by soil treatment (symbol f)
Method in brief: as §2

Digitaria ciliaris = experiment: Test Example 5: herbicidal effect by foliage application, plastic box (symbol F); details: 3 weeks after application
Method in brief: (§3)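 Visual herbicidal score, taken three weeks post-application, of seedlings sprayed on the foliage with water-diluted emulsion at a predetermined amount; plants were 14 days old, greenhouse-raised at 25° C. to 30° C.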

Setaria viridis = experiment: Test Example 5: herbicidal effect by foliage application, plastic box (symbol G); details: 3 weeks after application
Method in brief: as §3

Avena fatua = experiment: Test Example 5: herbicidal effect by foliage application, plastic box (symbol I); details: 3 weeks after application
Method in brief: as §3

Abutilon theophrasti = experiment: Test Example 5: herbicidal effect by foliage application, plastic box (symbol M); details: 3 weeks after application
Method in brief: as §3

Stellaria media [3] = experiment: Test Example 5: herbicidal effect by foliage application, plastic box (symbol P); details: 3 weeks after application
Method in brief: as §3

rice plant = experiment: Test Example 5: effect on crop by foliage application, plastic box (symbol b); details: 3 weeks after application
Method in brief: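 Crop seed is sown alongside grass and broadleaf weed species in spots in sterilized diluvial soil, then covered to a depth of about 1.5 cm. Plants grow in a greenhouse kept at 25° C. to 30° C.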

[4] = application herbicide amount 320 g/ha
[5] = application herbicide amount 102 g/ha

Row | SMILES | Effect grade on crop, a: transplanted rice plant (transplanted rice plant; [4]) | Herbicidal effect grade, C: Monochoria vaginalis (Monochoria vaginalis; [4]) | H: Echinochloa crus-galli var. crus-galli, herbicidal effect grade ([1]; 320 g/ha) | N: Amaranthus retroflexus, herbicidal effect grade (Amaranthus retroflexus; 320 g/ha) | P: Stellaria media, herbicidal effect grade (Stellaria media [2]; 320 g/ha) | Q: Galium spurium, herbicidal effect grade (Galium spurium; 320 g/ha) | b: directly sowed rice plant, effect grade on crop (rice; 320 g/ha) | f: beet, effect grade on crop (beet; 320 g/ha) | F: Digitaria ciliaris, herbicidal effect (criteria 0-5) (Digitaria ciliaris; 320 g/ha) | G: Setaria viridis, herbicidal effect (criteria 0-5) (Setaria viridis; 320 g/ha) | I: Avena fatua, herbicidal effect (criteria 0-5) (Avena fatua; 320 g/ha) | M: Abutilon theophrasti, herbicidal effect (criteria 0-5) (Abutilon theophrasti; 320 g/ha) | P: Stellaria media, herbicidal effect (criteria 0-5) (Stellaria media [3]; 320 g/ha) | b: directly sowed rice plant, effect on crop (criteria 0-5) (rice plant; 320 g/ha) | a (transplanted rice plant) effect on crop grade (transplanted rice plant; [4]) | F: Digitaria ciliaris, herbicidal effect grade (Digitaria ciliaris; 320 g/ha) | G: Setaria viridis, herbicidal effect grade (Setaria viridis; 320 g/ha) | I: Avena fatua, herbicidal effect grade (Avena fatua; 320 g/ha) | M: Abutilon theophrasti, herbicidal effect grade (Abutilon theophrasti; 320 g/ha) | P: Stellaria media, herbicidal effect grade (Stellaria media [3]; 320 g/ha) | also measured
1 | CCCON=C(C)CC1CC(O)=C(c2c(C)cc(C)cc2C)C1=O (stereo not shown) [1-123] | 5 (Herbicidal ratio of 90% or more (almost completely withered)) | 2 (Herbicidal ratio of 20% or higher and lower than 40%) | 5 (Herbicidal ratio of 90% or more (almost completely withered)) | 0 (Herbicidal ratio of 5% or lower (almost no effect)) | 0 (Herbicidal ratio of 5% or lower (almost no effect)) | 0 (Herbicidal ratio of 5% or lower (almost no effect)) | 5 (Herbicidal ratio of 90% or more (almost completely withered)) | 0 (Herbicidal ratio of 5% or lower (almost no effect)) | 5 (Herbicidal ratio of 90% or more (almost completely withered)) | 5 (Herbicidal ratio of 90% or more (almost completely withered)) | 5 (Herbicidal ratio of 90% or more (almost completely withered)) | 4 (Herbicidal ratio of 70% or higher and lower than 90%) | 3 (Herbicidal ratio of 40% or higher and lower than 70%) | 5 (Herbicidal ratio of 90% or more (almost completely withered)) | – | – | – | – | – | – | –
2 | Cc1cc(-n2cc(Cl)cn2)cc(C)c1C1=C(O)CC(CC(=NOCC(F)(F)F)C(C)C)C1=O (stereo not shown) [9-014] | – | 0 (Herbicidal ratio of 5% or lower (almost no effect)) | – | – | – | – | – | – | – | – | – | – | – | – | 5 (Herbicidal ratio of 90% or more (almost completely withered)) | 5 (Herbicidal ratio of 90% or more (almost completely withered)) | 5 (Herbicidal ratio of 90% or more (almost completely withered)) | 4 (Herbicidal ratio of 70% or higher and lower than 90%) | 0 (Herbicidal ratio of 5% or lower (almost no effect)) | 0 (Herbicidal ratio of 5% or lower (almost no effect)) | Herbicidal effect grade, H: Echinochloa crus-galli var. crus-galli [1, 4]: 1 (Herbicidal ratio of 5% or higher and lower than 20%); Herbicidal effect grade, N: Amaranthus retroflexus (Amaranthus retroflexus; [4]): 0 (Herbicidal ratio of 5% or lower (almost no effect)); Herbicidal effect grade, P: Stellaria media (Stellaria media [2]; [4]): 0 (Herbicidal ratio of 5% or lower (almost no effect)); Herbicidal effect grade, Q: Galium spurium (Galium spurium; [4]): 0 (Herbicidal ratio of 5% or lower (almost no effect)); Effect on crop grade, b: directly sowed rice plant (rice; [4]): 1 (Herbicidal ratio of 5% or higher and lower than 20%); Effect on crop grade, f: beet (beet; [4]): 0 (Herbicidal ratio of 5% or lower (almost no effect)); b: directly sowed rice plant, effect on crop grade (rice plant; 320 g/ha): 5 (Herbicidal ratio of 90% or more (almost completely withered))
3 | CCC(=O)CC1CC(O)=C(c2c(C)cc(Br)cc2OC)C1=O (racemic) [14-002] | – | 0 (Herbicidal ratio of 5% or lower (almost no effect)) | – | – | – | – | – | – | – | – | – | – | – | – | 2 (Herbicidal ratio of 20% or higher and lower than 40%) | 5 (Herbicidal ratio of 90% or more (almost completely withered)) | 5 (Herbicidal ratio of 90% or more (almost completely withered)) | 5 (Herbicidal ratio of 90% or more (almost completely withered)) | 4 (Herbicidal ratio of 70% or higher and lower than 90%) | 0 (Herbicidal ratio of 5% or lower (almost no effect)) | H: Echinochloa crus-galli var. crus-galli, herbicidal effect grade [1, 4]: 5 (Herbicidal ratio of 90% or more (almost completely withered)); N: Amaranthus retroflexus, herbicidal effect grade (Amaranthus retroflexus; [4]): 0 (Herbicidal ratio of 5% or lower (almost no effect)); P: Stellaria media, herbicidal effect grade (Stellaria media [2]; [4]): 0 (Herbicidal ratio of 5% or lower (almost no effect)); Q: Galium spurium, herbicidal effect grade (Galium spurium; [4]): 0 (Herbicidal ratio of 5% or lower (almost no effect)); b: directly sowed rice plant, effect on crop grade (rice; [4]): 5 (Herbicidal ratio of 90% or more (almost completely withered)); f: beet, effect on crop grade (beet; [4]): 0 (Herbicidal ratio of 5% or lower (almost no effect)); b: directly sowed rice plant, effect on crop grade (rice plant; 320 g/ha): 4 (Herbicidal ratio of 70% or higher and lower than 90%)
4 | CC(=O)CC1CC(O)=C(c2c(C)cc(C)cc2C)C1=O (stereo not shown) [2-001, 3-hydroxy-2-mesityl-5-(2-oxopropyl)cyclopent-2-enone] | – | – | – | – | – | – | – | – | – | – | – | – | – | – | – | – | – | – | – | – | Effect grade on crop, a: transplanted rice plant (transplanted rice plant; [5]): 4 (Herbicidal ratio of 70% or higher and lower than 90%); Herbicidal effect grade, C: Monochoria vaginalis (Monochoria vaginalis; [5]): 0 (Herbicidal ratio of 5% or lower (almost no effect)); H: Echinochloa crus-galli var. crus-galli, herbicidal effect grade ([1]; 102 g/ha): 5 (Herbicidal ratio of 90% or more (almost completely withered)); N: Amaranthus retroflexus, herbicidal effect grade (Amaranthus retroflexus; 102 g/ha): 1 (Herbicidal ratio of 5% or higher and lower than 20%); P: Stellaria media, herbicidal effect grade (Stellaria media [2]; 102 g/ha): 0 (Herbicidal ratio of 5% or lower (almost no effect)); Q: Galium spurium, herbicidal effect grade (Galium spurium; 102 g/ha): 0 (Herbicidal ratio of 5% or lower (almost no effect)); b: directly sowed rice plant, effect grade on crop (rice; 102 g/ha): 5 (Herbicidal ratio of 90% or more (almost completely withered)); f: beet, effect grade on crop (beet; 102 g/ha): 0 (Herbicidal ratio of 5% or lower (almost no effect)); F: Digitaria ciliaris, herbicidal effect grade (Digitaria ciliaris; 102 g/ha): 5 (Herbicidal ratio of 90% or more (almost completely withered)); G: Setaria viridis, herbicidal effect grade (Setaria viridis; 102 g/ha): 4 (Herbicidal ratio of 70% or higher and lower than 90%); I: Avena fatua, herbicidal effect grade (Avena fatua; 102 g/ha): 4 (Herbicidal ratio of 70% or higher and lower than 90%); M: Abutilon theophrasti, herbicidal effect grade (Abutilon theophrasti; 102 g/ha): 1 (Herbicidal ratio of 5% or higher and lower than 20%); P: Stellaria media, herbicidal effect grade (Stellaria media [3]; 102 g/ha): 3 (Herbicidal ratio of 40% or higher and lower than 70%); b: directly sowed rice plant, effect on crop grade (rice plant; 102 g/ha): 4 (Herbicidal ratio of 70% or higher and lower than 90%)
5 | CC(CC1CC(O)=C(c2c(C)cc(C)cc2C)C1=O)=NOCC(N)=O (stereo not shown) [1-124] | 0 (Herbicidal ratio of 5% or lower (almost no effect)) | 0 (Herbicidal ratio of 5% or lower (almost no effect)) | 1 (Herbicidal ratio of 5% or higher and lower than 20%) | 0 (Herbicidal ratio of 5% or lower (almost no effect)) | 0 (Herbicidal ratio of 5% or lower (almost no effect)) | 0 (Herbicidal ratio of 5% or lower (almost no effect)) | 1 (Herbicidal ratio of 5% or higher and lower than 20%) | 0 (Herbicidal ratio of 5% or lower (almost no effect)) | 0 (Herbicidal ratio of 5% or lower (almost no effect)) | 2 (Herbicidal ratio of 20% or higher and lower than 40%) | 2 (Herbicidal ratio of 20% or higher and lower than 40%) | 0 (Herbicidal ratio of 5% or lower (almost no effect)) | 2 (Herbicidal ratio of 20% or higher and lower than 40%) | 3 (Herbicidal ratio of 40% or higher and lower than 70%) | – | – | – | – | – | – | –
